The conditions of data set [1]: 298.15 K; 101.33 kPa; Liquid; Vibrating tube method.
Data set [2] in a line: refractive index (Na D-line) (dimensionless). The following applies: 298.15 K; 101.33 kPa; Liquid; Standard Abbe refractometry.
Data set [3] can be described thus: excess molar enthalpy (molar enthalpy of mixing); xn = mol fraction of the nth substance listed. The note with it: 298 K, 81.5 kPa, Liquid, Isoperibol calorimetry.

± gives the expanded uncertainty stated by the source.

In general, mass density refers to the mass of a sample divided by its volume. For orientation: refractive index means a measure of how strongly the sample bends light. As for `CCCCO` [butan-1-ol], in data set [1], the mass density was 805.79 ± 1 kg/m3. Further, the refractive index in data set [2] turned out to be 1.39734 ± 0.00031.

As to `CCC(C)O` (stereo not drawn) [butan-2-ol], the mass density in data set [1] came out at 802.48 ± 1 kg/m3. For the same molecule, the refractive index in data set [2] was determined as 1.39551 ± 0.00037.

As to `CCO` [ethanol], the mass density in data set [1] is given as 784.9 ± 1 kg/m3. The refractive index in data set [2] stood at 1.35961 ± 0.00031.

`O=[N+]([O-])c1ccccc1` [nitrobenzene]: in data set [1], the mass density is 1198.12 ± 1.1 kg/m3. In addition, in data set [2], the refractive index was 1.55004 ± 0.00037.

For `O=[N+]([O-])c1ccccc1` [nitrobenzene] + CC(C)O, the excess molar enthalpy in data set [3] (x1 = 0.1038) worked out at 0.208 ± 0.00263 kcal/mol; in data set [3] (x1 = 0.2065), 0.339 ± 0.0043 kcal/mol; in data set [3] (x1 = 0.306) it was 0.42 ± 0.00526 kcal/mol; in data set [3] (x1 = 0.3954) it was 0.466 ± 0.00574 kcal/mol; in data set [3] (x1 = 0.4911) it was 0.488 ± 0.00598 kcal/mol; in data set [3] (x1 = 0.5906) it was 0.485 ± 0.00598 kcal/mol. The excess molar enthalpy in data set [3] (x1 = 0.6999) was 0.451 ± 0.00574 kcal/mol; in data set [3] (x1 = 0.8042), 0.381 ± 0.00478 kcal/mol; in data set [3] (x1 = 0.8996), 0.264 ± 0.00335 kcal/mol.

Take `O=[N+]([O-])c1ccccc1` [nitrobenzene] + CCC(C)O: the excess molar enthalpy in data set [3] (x1 = 0.1035) is 0.262 ± 0.00335 kcal/mol; in data set [3] (x1 = 0.2049), 0.424 ± 0.00526 kcal/mol; in data set [3] (x1 = 0.3065), 0.528 ± 0.00669 kcal/mol; in data set [3] (x1 = 0.4088) it was 0.579 ± 0.00717 kcal/mol; in data set [3] (x1 = 0.5111), 0.592 ± 0.00741 kcal/mol; in data set [3] (x1 = 0.6117), 0.568 ± 0.00693 kcal/mol. The values for the excess molar enthalpy in data set [3] (x1 = 0.6988), in data set [3] (x1 = 0.7988) and in data set [3] (x1 = 0.8981) were 0.534 ± 0.00669 kcal/mol, 0.448 ± 0.0055 kcal/mol and 0.292 ± 0.00382 kcal/mol, respectively.

For the molecule `O=[N+]([O-])c1ccccc1` [nitrobenzene] + CCCCO, the excess molar enthalpy in data set [3] (x1 = 0.1116) amounted to 0.184 ± 0.00239 kcal/mol; in data set [3] (x1 = 0.2145), 0.31 ± 0.00382 kcal/mol; in data set [3] (x1 = 0.3183) it was 0.398 ± 0.00502 kcal/mol; in data set [3] (x1 = 0.4126), 0.448 ± 0.0055 kcal/mol; in data set [3] (x1 = 0.5133) it was 0.464 ± 0.00574 kcal/mol; in data set [3] (x1 = 0.61) it was 0.466 ± 0.00574 kcal/mol. Also, the excess molar enthalpy worked out at 0.449 ± 0.0055 kcal/mol in data set [3] (x1 = 0.6849), 0.391 ± 0.00502 kcal/mol in data set [3] (x1 = 0.7953) and 0.262 ± 0.00335 kcal/mol in data set [3] (x1 = 0.8987).

As for `O=[N+]([O-])c1ccccc1` [nitrobenzene] + CCCO, the excess molar enthalpy came out at 0.169 ± 0.00222 kcal/mol in data set [3] (x1 = 0.1037); 0.288 ± 0.00359 kcal/mol in data set [3] (x1 = 0.2036); 0.364 ± 0.00454 kcal/mol in data set [3] (x1 = 0.3063); 0.409 ± 0.00502 kcal/mol in data set [3] (x1 = 0.4034); 0.432 ± 0.0055 kcal/mol in data set [3] (x1 = 0.4956); 0.432 ± 0.0055 kcal/mol in data set [3] (x1 = 0.4993). The excess molar enthalpy in data set [3] (x1 = 0.593) came to 0.43 ± 0.00526 kcal/mol; in data set [3] (x1 = 0.6975), 0.408 ± 0.00502 kcal/mol; in data set [3] (x1 = 0.7978) it was 0.351 ± 0.0043 kcal/mol; in data set [3] (x1 = 0.9025), 0.242 ± 0.00311 kcal/mol.

Regarding `O=[N+]([O-])c1ccccc1` [nitrobenzene] + CCO, the excess molar enthalpy was determined as 0.112 ± 0.00153 kcal/mol in data set [3] (x1 = 0.0997); 0.201 ± 0.00263 kcal/mol in data set [3] (x1 = 0.1991); 0.264 ± 0.00335 kcal/mol in data set [3] (x1 = 0.2988); 0.307 ± 0.00382 kcal/mol in data set [3] (x1 = 0.4003); 0.342 ± 0.0043 kcal/mol in data set [3] (x1 = 0.4899); 0.355 ± 0.00454 kcal/mol in data set [3] (x1 = 0.5905). For the same molecule, the excess molar enthalpy was determined as 0.344 ± 0.0043 kcal/mol in data set [3] (x1 = 0.6997), 0.304 ± 0.00382 kcal/mol in data set [3] (x1 = 0.7999) and 0.222 ± 0.00287 kcal/mol in data set [3] (x1 = 0.8939).

For `CCCO` [propan-1-ol], the mass density in data set [1] is listed as 799.56 ± 1 kg/m3. The refractive index in data set [2] was 1.38361 ± 0.00031.

Turning to `CC(C)O` [propan-2-ol], in data set [1], the mass density is on record as 780.9 ± 1 kg/m3. Further, in data set [2], the refractive index amounted to 1.37518 ± 0.00033.

(Values after the NIST ThermoML archive (doi:10.1016/j.jct.2014.09.001).)
